Measurements published in PMC4077706, “Lifting the Mask: Identification of New Small Molecule Inhibitors of Uropathogenic Escherichia coli Group 2 Capsule Biogenesis” (PLoS ONE, 2014).
Like-named read-outs stand apart in the source and are kept apart here.

Experiments:
[1] = target: T1, Muscarinic M1 (Homo sapiens, UniProt P11229); assay: Radioligand binding 252610; conditions: read-out: IC50 Concurrent
T1 construct: host or cells: CHO-K1 cells

[2] = target: T1, Muscarinic M1; conditions: cited from earlier work
[3] = target: T2, Muscarinic M2 (Homo sapiens, UniProt P08172); conditions: cited from earlier work
T2 construct: host or cells: CHO-K1 cells

[4] = target: Muscarinic M3 (Homo sapiens, UniProt P20309); conditions: cited from earlier work
[5] = assay standard, general statement; cited from earlier work
[6] = target: Transporter, Dopamine (DAT) (Homo sapiens, UniProt Q01959); conditions: cited from earlier work
[7] = target: Serotonin (5-Hydroxytryptamine) 5-HT2B (Homo sapiens, UniProt P41595); conditions: cited from earlier work
[8] = target: Serotonin (5-Hydroxytryptamine) 5-HT3 (Homo sapiens, UniProt P46098); conditions: cited from earlier work
[9] = target: T3, Melatonin MT1 (Homo sapiens, UniProt P48039); conditions: cited from earlier work
T3 construct: host or cells: CHO-K1 cells

[10] = target: Opiate δ1 (OP1, DOP) (Homo sapiens, UniProt P41143); conditions: cited from earlier work
[11] = cited from earlier work

T1 sequence (P11229 whole entry): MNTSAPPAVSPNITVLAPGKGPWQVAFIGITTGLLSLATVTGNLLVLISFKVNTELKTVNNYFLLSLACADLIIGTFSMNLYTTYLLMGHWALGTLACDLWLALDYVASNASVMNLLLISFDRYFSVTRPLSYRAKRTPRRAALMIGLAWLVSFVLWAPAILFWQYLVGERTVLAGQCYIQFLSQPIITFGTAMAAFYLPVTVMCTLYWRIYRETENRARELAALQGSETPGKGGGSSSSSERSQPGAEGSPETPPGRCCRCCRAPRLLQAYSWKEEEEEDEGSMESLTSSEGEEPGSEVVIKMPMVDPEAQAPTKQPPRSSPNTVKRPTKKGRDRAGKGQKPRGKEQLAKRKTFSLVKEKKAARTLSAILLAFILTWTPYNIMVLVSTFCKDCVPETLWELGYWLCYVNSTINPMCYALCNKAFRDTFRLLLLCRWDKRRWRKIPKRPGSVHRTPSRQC
Sequence of Transporter, Dopamine (DAT) (Q01959 whole entry): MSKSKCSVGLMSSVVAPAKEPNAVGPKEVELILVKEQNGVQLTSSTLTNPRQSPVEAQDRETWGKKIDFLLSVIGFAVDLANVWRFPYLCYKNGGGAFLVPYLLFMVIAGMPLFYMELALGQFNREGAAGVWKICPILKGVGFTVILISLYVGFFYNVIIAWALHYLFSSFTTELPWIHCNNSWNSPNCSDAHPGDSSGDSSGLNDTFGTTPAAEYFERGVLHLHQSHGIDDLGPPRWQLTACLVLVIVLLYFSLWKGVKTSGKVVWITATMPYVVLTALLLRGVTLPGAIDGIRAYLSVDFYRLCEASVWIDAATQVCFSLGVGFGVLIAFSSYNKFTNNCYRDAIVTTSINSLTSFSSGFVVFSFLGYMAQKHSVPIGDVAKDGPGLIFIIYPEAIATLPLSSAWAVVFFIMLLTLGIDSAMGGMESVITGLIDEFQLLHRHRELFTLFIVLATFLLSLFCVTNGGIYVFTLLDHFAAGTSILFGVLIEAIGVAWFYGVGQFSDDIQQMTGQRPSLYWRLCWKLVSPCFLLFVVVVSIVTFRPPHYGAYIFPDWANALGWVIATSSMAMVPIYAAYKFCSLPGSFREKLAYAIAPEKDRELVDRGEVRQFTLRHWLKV
Sequence of Opiate δ1 (OP1, DOP) (P41143 whole entry): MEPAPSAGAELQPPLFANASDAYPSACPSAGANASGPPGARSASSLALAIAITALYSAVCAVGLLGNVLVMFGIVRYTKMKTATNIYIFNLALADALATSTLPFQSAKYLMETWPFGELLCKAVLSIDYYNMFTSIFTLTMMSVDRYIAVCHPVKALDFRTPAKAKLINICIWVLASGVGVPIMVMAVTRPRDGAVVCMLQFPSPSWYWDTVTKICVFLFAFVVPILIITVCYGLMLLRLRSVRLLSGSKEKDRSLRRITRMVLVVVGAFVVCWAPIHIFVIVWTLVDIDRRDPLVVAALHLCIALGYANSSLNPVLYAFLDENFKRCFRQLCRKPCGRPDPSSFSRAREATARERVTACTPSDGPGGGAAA
T3 sequence (P48039 whole entry): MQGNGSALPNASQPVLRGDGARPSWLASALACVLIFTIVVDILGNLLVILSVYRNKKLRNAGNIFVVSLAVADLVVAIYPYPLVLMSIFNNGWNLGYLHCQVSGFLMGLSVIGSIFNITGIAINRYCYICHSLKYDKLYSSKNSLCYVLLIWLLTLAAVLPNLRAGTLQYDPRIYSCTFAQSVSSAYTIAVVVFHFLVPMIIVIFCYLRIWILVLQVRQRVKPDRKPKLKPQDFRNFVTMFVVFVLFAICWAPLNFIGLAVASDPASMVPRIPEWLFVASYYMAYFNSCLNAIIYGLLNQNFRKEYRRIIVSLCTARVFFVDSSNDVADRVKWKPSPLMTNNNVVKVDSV
Sequence of Muscarinic M3 (P20309 whole entry): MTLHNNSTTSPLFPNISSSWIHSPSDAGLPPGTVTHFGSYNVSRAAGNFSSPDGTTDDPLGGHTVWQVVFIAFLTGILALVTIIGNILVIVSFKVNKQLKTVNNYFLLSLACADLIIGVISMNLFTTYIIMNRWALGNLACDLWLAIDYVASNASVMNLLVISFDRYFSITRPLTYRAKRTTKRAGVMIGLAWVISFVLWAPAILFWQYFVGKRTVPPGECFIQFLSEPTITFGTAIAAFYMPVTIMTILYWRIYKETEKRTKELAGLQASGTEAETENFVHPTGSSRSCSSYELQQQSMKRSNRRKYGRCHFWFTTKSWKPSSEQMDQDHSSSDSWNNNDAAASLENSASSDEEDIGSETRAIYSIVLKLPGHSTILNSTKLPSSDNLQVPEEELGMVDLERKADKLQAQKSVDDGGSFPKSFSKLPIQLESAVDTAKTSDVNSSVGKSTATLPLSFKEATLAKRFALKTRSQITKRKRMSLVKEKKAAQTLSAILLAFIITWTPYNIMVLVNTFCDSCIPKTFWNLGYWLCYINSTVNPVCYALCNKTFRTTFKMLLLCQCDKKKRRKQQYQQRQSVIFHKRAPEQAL
Sequence of Serotonin (5-Hydroxytryptamine) 5-HT2B (P41595 whole entry): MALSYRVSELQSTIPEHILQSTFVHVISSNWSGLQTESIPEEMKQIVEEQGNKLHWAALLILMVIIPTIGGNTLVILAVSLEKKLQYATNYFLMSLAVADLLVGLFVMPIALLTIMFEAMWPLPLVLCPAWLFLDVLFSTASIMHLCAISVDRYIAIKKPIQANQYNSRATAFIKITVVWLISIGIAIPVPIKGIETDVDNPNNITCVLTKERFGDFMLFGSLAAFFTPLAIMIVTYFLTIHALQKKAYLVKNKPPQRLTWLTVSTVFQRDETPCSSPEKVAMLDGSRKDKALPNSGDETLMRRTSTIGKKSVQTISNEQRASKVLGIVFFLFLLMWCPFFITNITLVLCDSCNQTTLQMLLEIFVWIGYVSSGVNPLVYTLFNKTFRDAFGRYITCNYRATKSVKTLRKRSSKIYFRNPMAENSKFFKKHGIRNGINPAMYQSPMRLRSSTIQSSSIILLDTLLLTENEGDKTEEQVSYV
T2 sequence (P08172 whole entry): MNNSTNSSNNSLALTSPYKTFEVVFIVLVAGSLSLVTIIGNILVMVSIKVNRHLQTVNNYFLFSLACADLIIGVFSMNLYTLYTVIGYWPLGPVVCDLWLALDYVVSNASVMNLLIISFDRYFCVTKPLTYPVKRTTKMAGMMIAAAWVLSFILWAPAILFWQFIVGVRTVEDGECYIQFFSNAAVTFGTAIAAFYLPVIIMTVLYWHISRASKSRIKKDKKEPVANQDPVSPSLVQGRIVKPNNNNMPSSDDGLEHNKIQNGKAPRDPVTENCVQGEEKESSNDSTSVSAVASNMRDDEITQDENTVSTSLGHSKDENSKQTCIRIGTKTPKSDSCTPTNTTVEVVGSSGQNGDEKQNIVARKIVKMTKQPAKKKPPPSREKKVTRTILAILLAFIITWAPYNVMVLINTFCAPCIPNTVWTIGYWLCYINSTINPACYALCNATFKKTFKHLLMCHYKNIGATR
Sequence of Serotonin (5-Hydroxytryptamine) 5-HT3 (P46098 24-478): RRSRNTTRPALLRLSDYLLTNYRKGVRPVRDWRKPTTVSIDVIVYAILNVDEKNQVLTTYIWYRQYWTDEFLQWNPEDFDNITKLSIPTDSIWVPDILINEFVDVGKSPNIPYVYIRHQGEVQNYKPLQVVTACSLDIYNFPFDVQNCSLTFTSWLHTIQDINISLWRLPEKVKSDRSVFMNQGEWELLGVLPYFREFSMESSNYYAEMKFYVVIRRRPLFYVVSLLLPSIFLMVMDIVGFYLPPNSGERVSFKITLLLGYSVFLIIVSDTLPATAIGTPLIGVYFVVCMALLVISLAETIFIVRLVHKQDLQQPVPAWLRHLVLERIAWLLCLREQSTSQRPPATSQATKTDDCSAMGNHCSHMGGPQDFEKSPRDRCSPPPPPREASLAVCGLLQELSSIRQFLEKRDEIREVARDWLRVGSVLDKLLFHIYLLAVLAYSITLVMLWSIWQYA

## C[N+]1(C)CCC(OC(=O)C(c2ccccc2)c2ccccc2)CC1.[I-] [Compound 4-DAMP, 4-DAMP]
[1]
  IC50: 5.51 nM
[2]
  nH Historical: 1.0
[2]; read-out: IC50 Historical
  IC50: 4.5 nM
[3]
  nH Historical: 1.0
[4]
  nH Historical: 1.10

## OCCN(CCO)c1nc(N2CCCCC2)c2nc(N(CCO)CCO)nc(N3CCCCC3)c2n1 [Dipyridamole]
[5]
  solubility of standard: poorly to moderately soluble

## Fc1ccc(C(OCCN2CCN(CCCc3ccccc3)CC2)c2ccc(F)cc2)cc1 [GBR-12909]
[6]
  nH Historical: 0.90

## O=C(c1ccc(F)cc1)C1CCN(CCn2c(=O)[nH]c3ccccc3c2=O)CC1 [Ketanserin]
[7]
  nH Historical: 0.60

## CN1[C@@H]2CC[C@H]1C[C@@H](OC(=O)c1cc(Cl)cc(Cl)c1)C2 [MDL 72222]
[8]
  nH Historical: 0.80

## COc1ccc2[nH]cc(CCNC(C)=O)c2c1 [Melatonin]
[9]
  nH Historical: 0.70

## Oc1ccc2c3c1O[C@H]1c4[nH]c5ccccc5c4C[C@@]4(O)[C@@H](C2)N(CC2CC2)CC[C@]314 [Naltrindole]
[10]
  nH Historical: 1.0

## CCN(CC)CCOC(=O)c1ccc(N)cc1 [Procaine]
[11]
  stability in human plasma of standard: highly unstable
